What was measured:
human PPARα = target: T1, human PPARα (Homo sapiens, UniProt Q07869); experiment: in vitro PPARα transactivation (GAL4-LBD luciferase reporter in HEK-293 cells); format: cell-based
T1 construct: expressed in transfected cells; host or cells: HEK-293
T1 sequence (Q07869 239-466 limits assumed): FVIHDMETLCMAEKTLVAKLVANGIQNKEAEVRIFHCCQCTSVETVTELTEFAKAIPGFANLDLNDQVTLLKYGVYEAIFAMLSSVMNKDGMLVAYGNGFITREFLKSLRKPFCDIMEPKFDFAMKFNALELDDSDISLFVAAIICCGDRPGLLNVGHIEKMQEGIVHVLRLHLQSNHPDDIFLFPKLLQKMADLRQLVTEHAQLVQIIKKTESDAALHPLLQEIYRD
Text: Generally, suitable PPAR agonists are believed to be useful for attenuating and/or treatment of diabetic dyslipidemia, metabolic syndrome, diabetes, cardiovascular disease, and obesity. The following procedure was used for in vitro determination of PPARα, γ and δ transactivation.
(§1) The ligand binding domain of human PPARγ1, PPARα or PPARδ was fused to the C-terminal end of DNA binding domain of yeast transcription factor GAL4 in eukaryotic expression vector. Using SuperFect (Qiagen), HEK-293 cells were transfected with this plasmid and a reporter plasmid harboring the luciferase gene driven under the control of 5 tandem GLA4 response elements. In some experiments, pAdVantage vector (Promega) was used to enhance luciferase expression. Compounds were added approximately 48 hours after transfection at various concentrations and incubated overnight. The cells were lysed and the luciferase activity was measured using the LucLite kit in Top Count (Packard). Luciferase activity was expressed as fold activation relative to untreated cells in the same experiment.

human PPARδ = target: T2, human PPARδ (Homo sapiens, UniProt Q03181); experiment: in vitro PPARδ transactivation (GAL4-LBD luciferase reporter in HEK-293 cells); format: cell-based
T2 construct: expressed in transfected cells; host or cells: HEK-293
T2 sequence (Q03181 211-439 limits assumed): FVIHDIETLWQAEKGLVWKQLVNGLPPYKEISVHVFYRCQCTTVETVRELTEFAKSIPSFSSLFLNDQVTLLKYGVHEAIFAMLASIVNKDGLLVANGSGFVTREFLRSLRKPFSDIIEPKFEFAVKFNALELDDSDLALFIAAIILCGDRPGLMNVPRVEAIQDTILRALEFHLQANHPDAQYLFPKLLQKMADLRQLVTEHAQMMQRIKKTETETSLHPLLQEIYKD
Text: (§2) The following procedure was used for in vitro determination of PPARα, γ and δ transactivation.
as §1

human PPARγ1 = target: T3, human PPARγ1 (Homo sapiens, UniProt P37231); experiment: in vitro PPARγ transactivation (GAL4-LBD luciferase reporter in HEK-293 cells); format: cell-based
T3 construct: expressed in transfected cells; host or cells: HEK-293
T3 sequence (P37231 238-503 limits assumed): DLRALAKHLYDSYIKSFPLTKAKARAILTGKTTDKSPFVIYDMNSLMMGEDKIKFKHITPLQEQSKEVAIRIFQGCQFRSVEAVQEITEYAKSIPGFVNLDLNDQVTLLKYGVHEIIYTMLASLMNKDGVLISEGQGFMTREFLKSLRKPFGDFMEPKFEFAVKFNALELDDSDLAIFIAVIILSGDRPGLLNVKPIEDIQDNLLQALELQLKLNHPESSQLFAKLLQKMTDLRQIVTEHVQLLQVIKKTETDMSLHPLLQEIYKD
Text: as §2, §1

Male Swiss albino mice = experiment: plasma triglyceride lowering in Swiss albino mice; format: in vivo; settings: plasma triglycerides
Protocol: Male Swiss albino mice (SAM) were obtained from National Institute Nutrition (NIN, Hyderabad, India) and housed in Dr. Reddy's Laboratories Ltd (DRL) animal house. All these animals were maintained under 12 hour light and dark cycle at 25±1° C. Animals were given standard laboratory chow (NIN, Hyderabad, India) and water, ad libitum. Mice of 20-25 grams body weight range were used. See Olivier, et al., Atherosclerosis, 1988, 70:107-114, incorporated herein by reference in its entirety. The test compounds were administered orally to mice at the doses shown in the following in table for 6 days. […] After centrifugation, plasma was separated for plasma triglyceride and total cholesterol measurement. See Wieland, Methods of Enzymatic Analysis, Bergermeyer, ed., 1963, 211-214; Trinder, Ann. Clin. Biochenz., 1969, 6:24-27, incorporated herein by reference in their entireties. Measurement of cholesterol and plasma triglyceride was done using a […] autoanalyser (Merck). The percent reductions in plasma triglycerides (TG)/total cholesterol were calculated according to the following formula: [formula] OC=Zero day control group value OT=Zero day treated group value TC=Test day control group value TT=Test day treated group value.

[1] = tested on: hypercholesterolemic Male Sprague Dawley rats; experiment: lipid lowering in hypercholesterolemic Sprague Dawley rats; format: in vivo; settings: hypercholesterolemic SD rats, 3 mg/kg orally for 3 days; for % Reduction TG: plasma triglycerides; for % Reduction TC: total cholesterol; for % Reduction LDL: LDL cholesterol calculated from TC, HDL, TG; for HDL % increase: values represent % increase
Protocol: Male Sprague Dawley rats (NIN stock) were bred in DRL animal house. Animals were maintained under 12 hour light and dark cycle at 25±1° C. Rats of 180-200 gram body weight range were used for the experiment. Animals were made hypercholesterolemic by feeding 2% cholesterol and 1% sodium cholate mixed with standard laboratory chow (NIN) for 6 days. Throughout the experimental period the animals were maintained on the same diet. Control rats were treated with vehicle alone (0.25% CMC; 10 ml/kg). Blood samples were collected in fed state 1 hour after drug administration on 0 and 3 days of treatment from the retro-orbital sinus through heparinized capillary tubes containing EDTA. After centrifugation, plasma sample was separated for total cholesterol, HDL and plasma triglyceride measurement. Measurement of total cholesterol, HDL and plasma triglyceride was done using a Vitalab Selectra autoanalyser (Merck). HDL was measured using a commercial kit. LDL and VLDL cholesterol were calculated from the data obtained for total cholesterol, HDL and plasma triglyceride.
The percent reductions in plasma triglycerides (TG)/total cholesterol (TC) were calculated as described in Example 55. The levels of LDL and VLDL cholesterol were calculated according to the following formulas: LDL cholesterol in mg/dl=[Total cholesterol−HDL cholesterol−Triglyceride/5] VLDL cholesterol in mg/dl=[Total cholesterol−HDL cholesterol−LDL cholesterol]

Row | PPARα luciferase fold activation relative to untreated cells (human PPARα; 1 μM) | PPARα luciferase fold activation relative to untreated cells (human PPARα; 10 μM) | PPARα luciferase fold activation relative to untreated cells (human PPARα; 50 μM) | PPARδ luciferase fold activation relative to untreated cells (human PPARδ; 1 μM) | PPARδ luciferase fold activation relative to untreated cells (human PPARδ; 10 μM) | PPARδ luciferase fold activation relative to untreated cells (human PPARδ; 50 μM) | PPARγ luciferase fold activation relative to untreated cells (human PPARγ1; 1 μM) | PPARγ luciferase fold activation relative to untreated cells (human PPARγ1; 10 μM) | PPARγ luciferase fold activation relative to untreated cells (human PPARγ1; 50 μM) | melting point | SMILES | % reduction in TG (Male Swiss albino mice; 3 mg/kg orally for 6 days) | % Reduction TG [1] | % Reduction TC [1] | % Reduction LDL [1] | HDL % increase [1] | % reduction in TG (Male Swiss albino mice; 1 mg/kg orally for 6 days)
1 | 1.7 | 3.8 | 6.0 | 9.0 | 10 | 33 | 0.9 | 1.2 | 6.4 |  | CCC(C)(Oc1ccc(OCc2cc(-c3ccc(OS(C)(=O)=O)cc3)no2)cc1)C(=O)O (centres unmarked) [Example 5] | 75% |  |  |  |  | 
2 | 4.0 | 5.7 | 5.1 | 7.5 | 23 | 47 | 0.9 | 3.5 | 9.5 | 115 to 117 °C | CCC(C)(Oc1ccc(OCCCc2cc(-c3ccccc3)no2)cc1)C(=O)O (centres unmarked) [Example 10] | 75% |  |  |  |  | 
3 | 4.1 | 4.0 | 4.0 |  |  |  | 2.4 | 2.7 | 3.6 | 136 to 138 °C | CCC(C)(Oc1ccc(OCc2cc(-c3ccc(C(F)(F)F)cc3)no2)cc1)C(=O)O (centres unmarked) [Example 11] | 65% | 55% | 71% | 76% | 139% | 
4 | 4.1 | 4.9 | 5.4 | 0.9 | 26.4 | 23.2 | 4.3 | 9.8 | 13.5 |  | O=C(O)C1(Cc2ccc(OCc3cc(-c4ccc(C(F)(F)F)cc4)no3)cc2)CCCO1 (centres unmarked) [Example 36] |  | 63% | 52% | 62% | 128% | 26%

Source: US20080045580A1, “Novel Isoxazole Compounds Having Ppar Agonist Activity” (DR REDDY'S LABORATORIES LIMITED, priority 2004, published 2008)
